# Measurements from PMC8174488, “4-Arylthiosemicarbazide derivatives as a new class of tyrosinase inhibitors and anti-Toxoplasma gondii agents” (Journal of Enzyme Inhibition and Medicinal Chemistry, 2021).
# Values joined by “and” are separate entries in the source; they are usually repeats but may differ in a detail not shown here. Equal values may be shown once. Read-outs that look alike come from different tables or passages of the source.
# Assays:
# Hs27 cell line = experiment: Cytotoxicity assay (MTT) on human fibroblast Hs27 cells; format: cell-based
# Description: (§1) Cell viability assay was performed according to international standards (ISO 10993–5:2009(E)), using tetrazolium salt (MTT, Sigma-Aldrich) and mouse fibroblasts L929 cells. Culture medium RPMI 1640, without phenol red (Biowest, Nuaille, France) supplemented with 10% FBS, 2 mM L-glutamine (Sigma-Aldrich), 100 I.U./mL penicillin, 100 µg/mL streptomycin were used. Briefly, 1 × 10^4/well of L929 cells were placed in 96-well plates and incubated for 24 h at 37 °C and 10% CO2. Afterwards, the old culture medium was replaced with 100 µL of the compound, drug or inhibitor, diluted in culture medium, and the cells treated for 24 h. Additionally, cells were treated with 0.03–4.0% concentration of DMSO as the solvent (data not shown). Then, 50 µL of 1 mg/mL of MTT solution in RPMI 1640 without phenol red was added to each well and incubated for 2 h at 37 °C and 10% CO2. Next, cell culture medium was aspirated carefully and 150 µL of DMSO was added to each well, and the plates were gently mixed. Then, 25 µL 0.1 M glycine buffer (pH 10.5) (Sigma-Aldrich) was added. The optical density at 570 nm using a multi-mode microplate reader SpectraMax® i3 (Syngen, Taipei City, Taiwan) was recorded. The results were expressed as a percentage of viability compared to untreated cells. All experiments were performed in triplicate. Cytotoxicity assay using human fibroblast Hs27 cells was also performed as described above (included in Supplementary Material).
# L929 cells [1] = experiment: Cell viability assay (MTT, ISO 10993-5) on L929 mouse fibroblasts; format: cell-based; settings: 24 h, concentration for 30% inhibition of cell proliferation
# Text: First, we evaluated the cytotoxic effects of 1b–9b, which is necessary prior to measuring anti-Toxoplasma and Tyr inhibition in order to exclude cytotoxic compounds. […] Cytotoxicity was estimated using mouse fibroblast (L929) cells line via MTT assay, according to the international standards ISO 10993–5:2009(E). […] Therefore, the obtained results were expressed as CC30, which was defined as the highest concentration of the compound that causes 30% damage of cells and was considered according to ISO as non-toxic.
# The L929 mouse fibroblast (ATTC® CCL-1™, Manassas, VA) was routinely maintained in RPMI 1640 media (R8758, Sigma-Aldrich, Suffolk, UK), supplemented with 10% foetal bovine serum (Foetal Bovine Serum, ATCC® 30–2020™), 100 I.U./mL penicillin and 100 µg/mL streptomycin (Penicillin-Streptomycin Solution ATCC® 30–2300™). Cells were trypsinised (Trypsin-EDTA Solution, 1X ATCC® 30–2101™) twice a week and seeded at a density of 1 × 10^6 per T25 cell culture flask and incubated at 37 °C and 10% CO2 to achieve a confluent monolayer.
# as §1
# T. gondii RH strain [2] = experiment: Antiparasitic assay: T. gondii RH proliferation in Hs27 cells, [3H]uracil incorporation; format: cell-based, Toxoplasma gondii; settings: for IC50: Toxoplasma gondii, HS27; for SR (selectivity ratio): ratio of CC30 (L929) to IC50Tg
# L929 cells [3] = settings: cited from earlier work
# T. gondii RH strain [4] = system: T. gondii RH strain; design: method as in PMID 30744161, PMID 31022878; settings: 50% inhibition of T. gondii proliferation in vitro; reported previously, listed for comparison; cited from earlier work
# [5] = system: T. gondii tachyzoites RH-GFP strain; experiment: Influence of compounds during Toxoplasma growth, assay B (compounds present 24 h after penetration); format: cell-based, Toxoplasma gondii; settings: 3 h infection without compound, then compound at IC50Tg for 24 h, Hs27 cells, vs untreated cells
# Tyr from mushrooms [6] = molecular target: T1, Tyr from mushrooms (Agaricus bisporus, UniProt C7FF04); experiment: Kinetic analysis of the inhibition of tyrosinase (Lineweaver-Burk, Dixon, [L-tyrosine]/V vs [I] plots); format: biochemical, mushroom; settings: for character of inhibition: Lineweaver–Burk plots; for Ki: Dixon plots; for IC50: plots of [L-tyrosine]/V vs [I]
# T1 sequence (G1K3P4 entry or part of it): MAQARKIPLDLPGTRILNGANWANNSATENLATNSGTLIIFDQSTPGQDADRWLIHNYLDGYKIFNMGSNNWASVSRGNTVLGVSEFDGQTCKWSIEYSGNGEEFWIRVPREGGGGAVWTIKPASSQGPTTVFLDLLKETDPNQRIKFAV
# T1 sequence (C7FF04 1-392): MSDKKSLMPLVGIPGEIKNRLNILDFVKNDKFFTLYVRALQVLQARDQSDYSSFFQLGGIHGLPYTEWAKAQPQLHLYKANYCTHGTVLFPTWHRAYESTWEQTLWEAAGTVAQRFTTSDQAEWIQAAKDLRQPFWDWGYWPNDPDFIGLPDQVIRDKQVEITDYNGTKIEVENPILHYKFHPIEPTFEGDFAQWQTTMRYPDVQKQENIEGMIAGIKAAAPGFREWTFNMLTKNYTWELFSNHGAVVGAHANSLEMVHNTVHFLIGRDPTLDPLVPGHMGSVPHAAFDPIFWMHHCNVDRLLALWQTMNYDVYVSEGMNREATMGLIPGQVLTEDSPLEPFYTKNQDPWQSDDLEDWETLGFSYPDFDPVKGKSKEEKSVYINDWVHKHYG
# Description: Therefore, these compounds were subsequently subjected to detailed kinetic studies to evaluate inhibition parameters. […] Dixon plots (Figure 7) were used in evaluating the KI values, while the plots of [L-tyrosine]/V vs. [I] (Figure 8), were employed to determine IC50Tyr[50]. [I] represents the concentration of the inhibitor. Rates were monitored spectrophotometrically by detecting changes in absorbance at 492 nm.
# Solutions containing 80 µL of 0.625, 1.25, or 2.5 mM L-tyrosine and 50 µL of 20, 100, or 200 µM inhibitor were added to a 96-well plate. Then, solution containing 70 µL of Tyr (10 U) was added and the initial rate of dopachrome formation was determined through detecting the increase in absorbance at the wavelength of 492 nm (Δ492/min). […] In order to determine the inhibition constants KI the Dixon plots were constructed, whereas the plots of [L-tyrosine]/V vs. inhibitor concentration [I] were used for IC50Tyr evaluation. The results from three experiments are shown.
# Tyr from mushrooms [7] = molecular target: T1, Tyr from mushrooms; experiment: Inhibition of tyrosinase activity assay (screening at 25 µM); format: biochemical, mushroom; settings: for inhibition at 25 µM: read-out: Tyrosinase inhibition, at 25 µM compound, L-tyrosine substrate, 10 U Tyr, 30 min; for Tyrosinase inhibition: at 25 µM compound, L-tyrosine substrate, 10 U Tyr, 30 min
# Description: In our study, we used Tyr from mushrooms (T3824, Sigma) for all experiments. All compound dilutions, L-tyrosine a Tyr substrate, and Tyr were prepared in 50 mM phosphate buffer (pH 6.5). […] 100% Tyr activity we used for the sample without addition compound/inhibitor. […] The average results from three experiments are shown.
# [8] = system: T. gondii tachyzoites RH-GFP strain; experiment: Influence of compounds during Toxoplasma growth, assay A (compounds present only during penetration); format: cell-based, Toxoplasma gondii; settings: compound at IC50Tg for 3 h during penetration, then 24 h free medium, Hs27 cells, vs untreated cells
# Toxoplasma gondii = Toxoplasma gondii proliferation; cited from earlier work
SMILES,"CC30 (Hs27 cell line; Hs27 cell line, MTT) [µM]",CC30 (L929 cells [1]),IC50 (T. gondii RH strain [2]) [µM],SR (selectivity ratio) (T. gondii RH strain [2]),melting point [°C],CC30 (Hs27 cell line) [µM],CC30 (L929 cells [3]) [µM],IC50 (T. gondii RH strain [4]) [µM],other results
"Cc1ccc(NC(=S)NNC(=O)C2CCCC2)cc1 [Compound 8b, 1-Cyclopentanoyl-4–(4-methylphenyl)thiosemicarbazide]",445.10,463.37 µM,181,2.55,175 to 177,–,–,–,–
Cc1ccc(NC(=S)NNC(=O)c2[nH]cnc2C)cc1 [Compound 8a],–,–,–,–,–,421.89,361.73,199,–
"COc1ccccc1NC(=S)NNC(=O)C1CCCC1 [Compound 7b, 1-Cyclopentanoyl-4–(2-methoxyphenyl)thiosemicarbazide]",> 1000,886.29 µM,327,2.71,176 to 178,–,–,–,–
Cc1nc[nH]c1C(=O)NNC(=S)Nc1ccccc1Cl [Compound 3a],–,–,–,–,–,502.21,462.12,115,–
"O=C(NNC(=S)Nc1cccc([N+](=O)[O-])c1)C1CCCC1 [Compound 1b, 1-Cyclopentanoyl-4–(3-nitrophenyl)thiosemicarbazide]",603.98,616.52 µM,180,3.43,134 to 136,–,–,–,–
"O=C(NNC(=S)Nc1ccc([N+](=O)[O-])cc1)C1CCCC1 [Compound 2b, 1-Cyclopentanoyl-4–(4-nitrophenyl)thiosemicarbazide]",405.09,378.39 µM and 378.4 µM,144,2.63,170 to 172,–,–,–,number of tachyzoites per PV [5]: significant reduction; percentage of infected cells [5]: not observable; character of inhibition (Tyr from mushrooms [6]): mixed character of inhibition; inhibition at 25 µM (Tyr from mushrooms [7]): 45.6 ± 2.8%; number of infected cells (infection index) [8]: significant reduction; number of tachyzoites per PV [8]: significant reduction
"O=c1cc(CO)occ1O [Kojic acid (KA), Kojic acid, reference compound]",> 2500,1558.28 µM,501,–,–,–,–,–,CC30 (L929 cells [1]; listed as KA): 1558.0 µM; number of tachyzoites per PV [5]: significant reduction; percentage of infected cells [5]: not observable; number of tachyzoites per PV [8]: significant reduction
COc1ccccc1NC(=S)NNC(=O)c1[nH]cnc1C [Compound 7a],–,–,–,–,–,498.12,452.06,108,–
Cc1nc[nH]c1C(=O)NNC(=S)Nc1cccc(I)c1 [Compound 6a],–,–,–,–,–,209.45,–,25.7,number of tachyzoites per PV [5]: significant reduction; percentage of infected cells [5]: not observable; Ki (Tyr from mushrooms [6]): 12.4 µM; character of inhibition (Tyr from mushrooms [6]): mixed character of inhibition; IC50 (Tyr from mushrooms [6]): 37.4 µM; Tyrosinase inhibition (Tyr from mushrooms [7]): 48.9 ± 3.0%; number of infected cells (infection index) [8]: significant reduction; number of tachyzoites per PV [8]: significant reduction
"O=C(NNC(=S)Nc1cc(F)ccc1F)C1CCCC1 [Compound 9b, 1-Cyclopentanoyl-4–(2,5-difluorophenyl)thiosemicarbazide]",> 1000,860.66 µM,321,2.68,178 to 180,–,–,–,–
"O=C(NNC(=S)Nc1ccccc1Br)C1CCCC1 [Compound 4b, 4–(2-Bromophenyl)-1-cyclopentanoylthiosemicarbazide]",> 1000,806.60 µM,218,3.70,179 to 181,–,–,–,–
Cc1nc[nH]c1C(=O)NNC(=S)Nc1cccc([N+](=O)[O-])c1 [Compound 1a],–,–,–,–,–,479.22,440.95,46.1,–
"O=C(NNC(=S)Nc1ccccc1Cl)C1CCCC1 [Compound 3b, 4–(2-Chlorophenyl)-1-cyclopentanoylthiosemicarbazide]",512.31,554.73 µM,368,1.51,178 to 180,–,–,–,–
Nc1ccc(S(=O)(=O)Nc2ncccn2)cc1 [sulfadiazine],–,–,–,–,–,–,–,–,IC50 (Toxoplasma gondii): ~8500 µM
Cc1nc[nH]c1C(=O)NNC(=S)Nc1ccc([N+](=O)[O-])cc1 [Compound 2a],–,–,–,–,–,697.67,–,67.5,number of tachyzoites per PV [5]: significant reduction; percentage of infected cells [5]: not observable; Ki (Tyr from mushrooms [6]): 9.35 µM; character of inhibition (Tyr from mushrooms [6]): mixed character of inhibition; IC50 (Tyr from mushrooms [6]): 38.3 µM; Tyrosinase inhibition (Tyr from mushrooms [7]): 46.4 ± 3.6%; number of infected cells (infection index) [8]: significant reduction; number of tachyzoites per PV [8]: significant reduction
Cc1nc[nH]c1C(=O)NNC(=S)Nc1ccccc1I [Compound 5a],–,–,–,–,–,278.72,253.17,50.6,–
"CCc1nc(N)nc(N)c1-c1ccc(Cl)cc1 [Pyrimethamine (PYR), Pyrimethamine, reference compound]",–,181.97 µM,11.5,15.85,–,–,–,–,–
Cc1nc[nH]c1C(=O)NNC(=S)Nc1ccccc1Br [Compound 4a],–,–,–,–,–,728.41,579.61,78.1,–
Cc1nc[nH]c1C(=O)NNC(=S)Nc1cc(F)ccc1F [Compound 9a],–,–,–,–,–,612.48,509.11,172,–
"O=C(NNC(=S)Nc1ccccc1I)C1CCCC1 [Compound 5b, 1-Cyclopentanoyl-4–(2-iodophenyl)thiosemicarbazide]",369.69,333.25 µM,128,2.60,182 to 184,–,–,–,–
"O=C(NNC(=S)Nc1cccc(I)c1)C1CCCC1 [Compound 6b, 1-Cyclopentanoyl-4–(3-iodophenyl)thiosemicarbazide]",135.87,117.68 µM,54.5,2.16,173 to 175,–,–,–,number of tachyzoites per PV [5]: significant reduction; percentage of infected cells [5]: not observable; character of inhibition (Tyr from mushrooms [6]): mixed character of inhibition; inhibition at 25 µM (Tyr from mushrooms [7]): 43.9 ± 3.4%; number of infected cells (infection index) [8]: significant reduction; number of tachyzoites per PV [8]: significant reduction
